# Data from patent US20240190824A1, “INHIBITORS OF TREK (TWIK RELATED K+ CHANNELS) CHANNEL FUNCTION” (ONO PHARMACEUTICAL CO., LTD., priority 2019, published 2024).
# Molecular target: human TREK-1 (Homo sapiens (Human), UniProt O95069)
# Test: TREK-1 Thallium (Tl+) flux assay
# Type: cell-based
# Conditions: CHO-K1 cells stably expressing human TREK-1
# Chain of human TREK-1 (O95069 whole entry): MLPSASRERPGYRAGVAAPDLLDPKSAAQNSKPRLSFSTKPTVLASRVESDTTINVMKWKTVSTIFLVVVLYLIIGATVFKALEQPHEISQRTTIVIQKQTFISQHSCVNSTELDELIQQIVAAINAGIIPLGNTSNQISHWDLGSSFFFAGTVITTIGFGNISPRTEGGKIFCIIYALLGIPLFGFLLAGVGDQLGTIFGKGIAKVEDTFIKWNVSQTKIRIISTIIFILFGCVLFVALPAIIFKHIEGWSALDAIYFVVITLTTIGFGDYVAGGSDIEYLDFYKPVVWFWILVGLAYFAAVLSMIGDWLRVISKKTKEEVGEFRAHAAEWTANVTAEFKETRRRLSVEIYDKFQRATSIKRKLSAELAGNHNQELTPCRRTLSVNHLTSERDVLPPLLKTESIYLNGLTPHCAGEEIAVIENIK
row,IC50 [nM],Compound
1,160,"Cc1cc(C#Cc2ccccc2)cnc1NC(=O)c1cc(-c2ccnn2C)ccc1Cl [Compound 61, 2-chloro-N-[3-methyl-5-(2-phenylethynyl)-2-pyridyl]-5-(2-methylpyrazol-3-yl)benzamide]"
2,180,"Cc1cc(C#Cc2ccccc2)cnc1NC(=O)c1cc(C(=O)NC(C)(C)CO)ccc1Cl [Compound 17, 4-chloro-N1-(2-hydroxy-1,1-dimethyl-ethyl)-N3-[3-methyl-5-(2-phenylethynyl)-2-pyridyl]benzene-1,3-dicarboxamide]"
3,450,"Cc1ncc(-c2ccc(Cl)c(C(=O)Nc3ncc(C#Cc4ccccc4)cc3C)c2)s1 [Compound 75, 2-chloro-N-[3-methyl-5-(2-phenylethynyl)-2-pyridyl]-5-(2-methylthiazol-5-yl)benzamide]"
4,7670,"Cc1cc(OCc2ccccc2)ccc1NC(=O)c1ccc(N)cc1Cl [Compound 89, 4-amino-N-(4-(benzyloxy)-2-methylphenyl)-2-chlorobenzamide]"
5,220,"Cc1nn(C)cc1-c1ccc(Cl)c(C(=O)Nc2ncc(C#Cc3ccccc3)cc2F)c1 [Compound 68, 2-chloro-5-(1,3-dimethylpyrazol-4-yl)-N-[3-fluoro-5-(2-phenylethynyl)-2-pyridyl]benzamide]"
6,240,"Cc1cc(C#Cc2cccc(F)c2)cnc1NC(=O)c1cc(C(=O)N2CC(C)(O)C2)ccc1Cl [Compound 18, 2-chloro-N-[5-[2-(3-fluorophenyl)ethynyl]-3-methyl-2-pyridyl]-5-(3-hydroxy-3-methyl-azetidine-1-carbonyl)benzamide]"
7,360,"Cc1cc(C#Cc2ccccc2)cnc1NC(=O)c1c(Cl)ccc(NC(=O)OC(C)(C)C)c1F [Compound 34, tert-butyl N-[4-chloro-2-fluoro-3-[[3-methyl-5-(2-phenylethynyl)-2-pyridyl]carbamoyl]phenyl]carbamate]"
8,180,"Cc1cc(C#Cc2ccccc2)cnc1NC(=O)c1cc(NC(=O)C2CC2)ccc1Cl [Compound 9, 2-chloro-5-(cyclopropanecarbonylamino)-N-[3-methyl-5-(2-phenylethynyl)-2-pyridyl]benzamide]"
9,310,"Cc1cc(C#Cc2ccc(F)cc2)cnc1NC(=O)c1cc(NC(=O)C2CCO2)ccc1Cl (stereo not drawn) [Compound 12, N-[4-chloro-3-[[5-[2-(4-fluorophenyl)ethynyl]-3-methyl-2-pyridyl]carbamoyl]phenyl]oxetane-2-carboxamide]"
10,220,"Cc1cc(C#Cc2ccccc2)cnc1NC(=O)c1cc(-c2cnn(C3CCOC3)c2)ccc1Cl (stereo not drawn) [Compound 66, 2-chloro-N-(3-methyl-5-(phenylethynyl)pyridin-2-yl)-5-(1-(tetrahydrofuran-3-yl)-1H-pyrazol-4-yl)benzamide]"
11,290,"Cc1cc(C#Cc2ccccc2)cnc1NC(=O)c1nc(NC(=O)C2CC2C)ccc1Cl (stereo not drawn) [Compound 33, 3-chloro-6-[(2-methylcyclopropanecarbonyl)amino]-N-[3-methyl-5-(2-phenylethynyl)-2-pyridyl]pyridine-2-carboxamide]"
12,230,"Cc1cc(C#Cc2ccc(F)cc2)cnc1NC(=O)c1cc(NC(=O)C2COCCO2)ccc1Cl (stereo not drawn) [Compound 14, N-[4-chloro-3-[[5-[2-(4-fluorophenyl)ethynyl]-3-methyl-2-pyridyl]carbamoyl]phenyl]-1,4-dioxane-2-carboxamide]"
13,470,"Cc1cc(C#Cc2cnccn2)cnc1NC(=O)c1cc(NC(=O)OC(C)(C)C)ccc1Cl [Compound 39, tert-butyl N-[4-chloro-3-[[3-methyl-5-(2-pyrazin-2-ylethynyl)-2-pyridyl]carbamoyl]phenyl]carbamate]"
14,170,"O=C(Nc1ncc(C#Cc2ccccc2)cc1F)c1cc(NC(=O)C2(F)CC2)ccc1Cl [Compound 6, 2-chloro-5-[(1-fluorocyclopropanecarbonyl)amino]-N-[3-fluoro-5-(2-phenylethynyl)-2-pyridyl]benzamide]"
15,130,"Cc1cc(C#Cc2ccccc2)cnc1NC(=O)c1cc(-c2cnn(C3COC3)c2)ccc1Cl [Compound 58, 2-chloro-N-[3-methyl-5-(2-phenylethynyl)-2-pyridyl]-5-[1-(oxetan-3-yl)pyrazol-4-yl]benzamide]"
16,210,"Cc1nc(C)c(-c2ccc(Cl)c(C(=O)Nc3ncc(C#Cc4ccccc4)cc3F)c2)s1 [Compound 67, 2-chloro-5-(2,4-dimethylthiazol-5-yl)-N-[3-fluoro-5-(2-phenylethynyl)-2-pyridyl]benzamide]"
17,200,"Cc1cc(C#Cc2ccccc2)cnc1NC(=O)c1cc(-c2cnn(C3CCOCC3)c2)ccc1Cl [Compound 65, 2-chloro-N-[3-methyl-5-(2-phenylethynyl)-2-pyridyl]-5-(1-tetrahydropyran-4-ylpyrazol-4-yl)benzamide]"
18,290,"CC(C)(C)OC(=O)Nc1ccc(Cl)c(C(=O)Nc2ncc(-c3cnn(-c4ccccc4)c3)cc2F)c1 [Compound 97, tert-butyl N-[4-chloro-3-[[3-fluoro-5-(1-phenylpyrazol-4-yl)-2-pyridyl]carbamoyl]phenyl]carbamate]"

row,IC50 [nM],Compound
1,1090,"Cc1cc(C#Cc2cccc(F)c2)nc(C)c1NC(=O)c1cc(NC(=O)[C@H]2C[C@@H]2C)ccc1Cl [Compound 49, 2-chloro-N-[6-[2-(3-fluorophenyl)ethynyl]-2,4-dimethyl-3-pyridyl]-5-[[(1S,2S)-2-methylcyclopropanecarbonyl]amino] benzamide]"
2,470,"CC(C)(C)OC(=O)Nc1ccc(Cl)c(C(=O)Nc2c(F)cc(C#Cc3ccccc3)nc2F)c1 [Compound 40, tert-butyl N-[4-chloro-3-[[2,4-difluoro-6-(2-phenylethynyl)-3-pyridyl]carbamoyl]phenyl]carbamate]"
3,130,"C[C@H]1C[C@@H]1C(=O)Nc1ccc(Cl)c(C(=O)Nc2ncc(C#Cc3cccc(F)c3)cc2F)c1 [Compound 4, 2-chloro-N-[3-fluoro-5-[2-(3-fluorophenyl)ethynyl]-2-pyridyl]-5-[[(1S,2S)-2-methylcyclopropanecarbonyl]amino]benzamide]"
4,300,"Cc1cc(C#Cc2ccccc2)cnc1NC(=O)c1cc(C(=O)N2CC(O)C2)ccc1Cl [Compound 71, 2-chloro-5-(3-hydroxyazetidine-1-carbonyl)-N-[3-methyl-5-(2-phenylethynyl)-2-pyridyl]benzamide]"
5,50,"Cc1cc(C#Cc2ccccc2)cnc1NC(=O)c1cc(-c2noc(C3CCOC3)n2)ccc1Cl (stereo not drawn) [Compound 19, 2-chloro-N-[3-methyl-5-(2-phenylethynyl)-2-pyridyl]-5-(5-tetrahydrofuran-3-yl-1,2,4-oxadiazol-3-yl)benzamide]"
6,560,"Cc1cc(OCc2ccccc2)cnc1NC(=O)c1cc(NC(=O)OC(C)(C)C)ccc1Cl [Compound 87, tert-butyl N-[3-[(5-benzyloxy-3-methyl-2-pyridyl)carbamoyl]-4-chloro-phenyl]carbamate]"
7,560,"O=C(Nc1ncc(-c2ccn(-c3ccc(F)cc3)n2)cc1F)c1cc(NC(=O)C2COCCO2)ccc1Cl (stereo not drawn) [Compound 98, N-[4-chloro-3-[[3-fluoro-5-[1-(4-fluorophenyl)pyrazol-3-yl]-2-pyridyl]carbamoyl]phenyl]1,4-dioxane-2-carboxamide]"
8,110,"Cc1cc(C#Cc2ccccc2)cnc1NC(=O)c1cc(OC[C@H]2COCCO2)ccc1Cl [Compound 21, 2-chloro-5-[[(2R)-1,4-dioxan-2-yl]methoxy]-N-[3-methyl-5-(2-phenylethynyl)-2-pyridyl]benzamide]"
9,110,"O=C(Nc1ncc(C#Cc2ccccc2)cc1F)c1cc(-c2cnn(C3COC3)c2)ccc1Cl [Compound 56, 2-chloro-N-[3-fluoro-5-(2-phenylethynyl)-2-pyridyl]-5-[1-(oxetan-3-yl)pyrazol-4-yl]benzamide]"
10,870,"Cc1ccc(NC(=O)OC(C)(C)C)cc1C(=O)Nc1ncc(C#Cc2ccccc2)cc1C [Compound 46, tert-butyl N-[4-methyl-3-[[3-methyl-5-(2-phenylethynyl)-2-pyridyl]carbamoyl]phenyl]carbamate]"
11,870,"Cc1cc(C#Cc2ccccc2)cnc1NC(=O)c1cc(C(=O)N2CC(O)(C(F)(F)F)C2)ccc1Cl [Compound 79, 2-chloro-5-[3-hydroxy-3-(trifluoromethyl)azetidine-1-carbonyl]-N-[3-methyl-5-(2-phenylethynyl)-2-pyridyl]benzamide]"
12,1830,"Cc1cc(-c2ccc(-c3ccccc3)s2)cnc1NC(=O)c1cc(NC(=O)OC(C)(C)C)ccc1Cl [Compound 99, tert-butyl N-[4-chloro-3-[[3-methyl-5-(5-phenyl-2-thienyl)-2-pyridyl]carbamoyl]phenyl]carbamate]"
13,950,"Cc1cc(C#Cc2ccccc2)nc(C)c1NC(=O)c1cc(NC(=O)OC(C)(C)C)ccc1Cl [Compound 48, tert-butyl N-[4-chloro-3-[[2,4-dimethyl-6-(2-phenylethynyl)-3-pyridyl]carbamoyl]phenyl]carbamate]"
14,460,"Cc1cc(OCc2ccccc2)ccc1NC(=O)c1cc(NC(=O)OC(C)(C)C)ccc1Cl [Compound 25, tert-butyl (3-((4-(benzyloxy)-2-methylphenyl)carbamoyl)-4-chlorophenyl)carbamate]"
15,230,"COCCOc1ccc(Cl)c(C(=O)Nc2ncc(C#Cc3ccccc3)cc2C)c1 [Compound 24, 2-chloro-5-(2-methoxyethoxy)-N-[3-methyl-5-(2-phenylethynyl)-2-pyridyl]benzamide]"
16,170,"Cc1cc(C#Cc2ccccc2)cnc1NC(=O)c1cc(-c2cnn(CCN3CCOCC3)c2)ccc1Cl [Compound 62, 2-chloro-N-[3-methyl-5-(2-phenylethynyl)-2-pyridyl]-5-[1-(2-morpholinoethyl)pyrazol-4-yl]benzamide]"
17,1080,"Cc1cc(C#Cc2ccccc2)cnc1NC(=O)c1cc(NC(=O)OC(C)(C)C)ccc1F [Compound 50, tert-butyl N-[4-fluoro-3-[[3-methyl-5-(2-phenylethynyl)-2-pyridyl]carbamoyl]phenyl]carbamate]"

row,Compound,IC50 [nM]
1,"Cc1cc(C#Cc2ccccc2)cnc1NC(=O)c1nc(NC(=O)OC(C)(C)C)ccc1Cl [Compound 43, tert-butyl N-[5-chloro-6-[[3-methyl-5-(2-phenylethynyl)-2-pyridyl]carbamoyl]-2-pyridyl]carbamate]",550
